One data set has as its system SIVmac251.30 Env. The class given is cell-based, SIV.
For data set [1], the system named is Envs from HIV-1 primary isolates of clade A, B, C and AG. Format: cell-based.
The test system of the next data set is HIV-1 Env pseudoviruses. The class given is cell-based.
A further data set deals with 2F5 Fab. Format: binding.
A further data set addresses HIV-1 92UG037.8 Env (Human immunodeficiency virus type 1, UniProt Q70200). The class given is cell-based.

For `Cc1cc(N)c2ccccc2[n+]1CCCCCCCCCC[n+]1c(C)cc(N)c2ccccc21` [dequalinium, quinolinium,1,1’-(1,10-decanediyl)-bis(4-amino-2-methyldiiodide)], in the data set with SIVmac251.30 Env, the “inhibition of cell-cell fusion mediated by SIV Env, high expression level” value was “resistant” and the “inhibition of cell-cell fusion mediated by SIV Env, low expression level” value is “inhibited”. For the same compound, in data set [1], the “inhibition of cell-cell fusion mediated by Envs of multiple primary HIV-1 isolates” value is reported as “specifically inhibited”. The “cytotoxicity in TZM.bl cells” value in the data set with TZM.bl cells was “more cytotoxicity than in the cell-cell fusion assay”. For the same compound, in the data set on HIV-1 Env pseudoviruses, the “inhibition of HIV-1 infectivity versus MuLV negative control” value is listed as “much greater inhibition”. The “cytotoxicity by an assay measuring ATP concentration” value in the data set with 293T cells is listed as “minimal level of cytotoxicity”. Also, the “binding to 2F5 Fab by SPR (in words)” value with 2F5 Fab is reported as “no binding”.
For `Cc1cc(N)c2ccccc2n1` [4-aminoquinaldine], the “inhibition activity/potency in the HIV-1 Env cell-cell fusion assay (in words)” value against HIV-1 92UG037.8 Env is “no activity”.

(Values after article PMC7723321 (Nature chemical biology, 2020).)
